In US8080582B2, “Derivatives of 8-epiblechnic acid and their effects on down-regulation of endothelin (ETA) receptor mRNA” (ScinoPharm Taiwan Ltd., priority 2008, dated 2011):
“Also recorded” adds a separate entry of the source.

What was measured:
Assay type in all cases: cell-based
ETAR mRNA expression = assay: Real-time quantitative RT-PCR of ETAR mRNA in smooth muscle cells (A10); conditions: A10 smooth muscle cells, 0.2 mM, 48 hrs, vs DMSO control, FIG. 4, read-out: ETAR mRNA remaining after the treatment
Experimental: Extraction of cellular RNA: Subculturing smooth muscle cells to 100-mm culture dishes. After the cells had filled the culture dishes, Sal-B and its analogs were added to treat the cells for 48 hrs. After that, 1×PBS solutions were added to wash the cells three times. After adding 1 ml TRIzol, the cells were scraped off and placed in 1.5 ml micro-centrifuge tubes. Following the addition of 0.2 ml chloroform to each tube, the tubes were shaken, left at room temperature for 3 min., and run in a centrifuge at 12,000 rpm for 15 min. The supernatant liquid was removed and the cells placed in new micro-centrifuge tubes. After adding an amount of isopropyl alcohol equivalent to one-half of the volume of the supernatant liquid, and mixing until homogeneous, the samples were allowed to stand at room temperature for 10 min. The supernatant liquid was removed after centrifugation at 12,000 rpm for 10 min. 1 ml 70% alcohol was added to wash out salts, followed by centrifugation for 5 min. and removal of supernatant liquid. The samples were dissolved in 50 μl DEPC-H2O after drying.
(1) cDNA synthesis: 1 μl Random hexamer primer (20 μM) and 1 μl dNTP(10 mm) were added to 3 μg RNA, which was allowed to react at 65° C. for 5 min., and then placed on ice promptly. After the addition of 2 μl 10× reaction buffer, 0.5 μl RNaseOUT (40 unit/μl) and 1 μl SuperScript III RT (200 unit/μl), the solution was mixed until homogeneous, and allowed to react at 50° C. for 50 min. After that, the mixture was heated to 85° C. for 5 min. to terminate the enzymatic reaction. The samples were preserved at −70° C. for later use.
(2) PCR quantitative analysis: After adding 7.5 μl PCR primer mix (400 nm each) and 15 μl SYBR Green dye reagent to the 7.5 μl cDNA template, the solution was placed in Bio-Rad's iCycler for PCR reaction. The resulting data was inputted into Gene Expression Analysis for iCycler iQ Real-Time PCR Detection System for quantitative analysis of gene expression.
Furthermore, after treating vascular smooth muscle cells with 100 μg/ml of either Sal-B or EBA for 48 hrs, the identical concentrations of cellular whole RNA were sampled for the synthesis of cDNA by using reverse transcriptase. The PCR method was employed to determine the amounts of endothelin receptor mRNA expression. […] For the analysis of ETAR mRNA expression by using the real-time PCR method, vascular smooth muscle cells at full confluence 100-mm culture dishes were treated with 100 μg/ml of either Sal-B or EBA for 48 hrs. The identical concentrations of cellular whole RNA were sampled for the synthesis of cDNA by using reverse transcriptase. The real-time PCR method was used to compare the amounts of ETAR mRNA expression.
The different analogs, compounds A to F, had different effects on ETAR mRNA expression. The control group represented treating smooth muscle cells (A10) with DMSO, and the positive control group represented treating the cells with Sal-B. The smooth muscle cells were treated with 0.2 mM Sal-B and compounds A to F for 48 hrs. The identical concentrations of cellular RNA were sampled for the synthesis of cDNA by using reverse transcriptase. The real-time PCR method was employed to determine the amounts of ETAR mRNA expression. Compared with the control group, compound B had the least effect on down-regulating ETAR mRNA expression, as approximately 50% of the ETAR mRNA remained after the treatment. […]

[1] = tested on: normal mammary gland cell line (A1N4); assay: Cytotoxicity test on normal mammary gland cells; conditions: A1N4 normal mammary gland cells, FIG. 2
Experimental: (§1) The cells (1×10^5 cells/well in 24-well plates) were cultured for 24 hrs. Different concentrations of Sal-B and its analogs (0, 50, 100, 150, 200, 250 μg/ml) were added to treat the cells. After treating for 48 hrs, 100 μl MTT solution was added to each well, and the plate was placed in an incubator for 1-4 hrs. After adding 400 μl DMSO to treat the cells for 30 min., 200 μl samples were collected and placed in a 96-well plate to conduct the absorption measurement at 550 nm.

[2] = tested on: nasopharyngeal cancer cells (Hone-1); assay: MTT cell viability, nasopharyngeal cancer cells; conditions: Hone-1 cells, summary statement
Experimental: as §1
(§2) Cancer cells were treated with Sal-B and EBA at concentrations of 0, 0.1, 0.2, 0.3, 0.4, 0.5 mM. After treating for 48 hrs, MTT was added, and then allowed to react for 3 hrs at 37° C. After that, DMSO was added and allowed to react for 30 min., the OD570 absorption values were measured. Cell viability was above 80% when nasopharyngeal cancer cells (Hone-1) were treated with […] Sal-B and EBA. […] But the cell viability remained above 70% for treating with 0.1 mM and 0.2 mM EBA. Similar results were obtained when prostate cancer cells (PC-3) were treated with the drugs: Cell viability was above 80% for treating PC-3 cells with 0.2 mM Sal-B or EBA.

[3] = tested on: Vascular smooth muscle cells (cell line A10); assay: MTT cell viability / observation of normal vascular smooth muscle cells (A10); conditions: 48 hrs; for Precipitation in the treated sample: dissolved in DMSO, added to A10 cells, 0.2 mM
Experimental: as §1
Cell viability testing (MTT testing) was employed to determine the cytotoxicity of Sal-B and EBA to vascular smooth muscle cells. Vascular smooth muscle cells (cell line A10) were treated with Sal-B and EBA at concentrations of 0, 0.1, 0.2, 0.3, 0.4, and 0.5 mM. After treating for 48 hrs, MTT was added and allowed to react for 3 hrs at 37° C. Then, DMSO was added and allowed to react for 30 min., after that, the OD570 absorption values were measured. Cell viability was still 90% when the drug concentration reached 0.2 mM.
Sal-B's analogs, compounds A to F, were dissolved in DMSO, and then added to A10 cells to observe the results.

PC-3 cancer cells = assay: Flow cytometry cell cycle analysis (sub-G1, apoptosis) of PC-3 cells; conditions: PC-3, 0.01 mM, 48 hrs, PI flow cytometry; control around 1.18%
Experimental: After suspending cells, the precooled 70% ethanol was used for fixing the cells. After centrifuging the mixture for 10 min. at 3,000 rpm, supernatant liquid was removed. Propidium iodide (PI) buffer (0.1% Triton X-100, 0.2 μg/ml RNase A, 40 μg/ml PI) was added, and then the solution was kept still at 37° C. for 30 min. After that, the cell cycle analysis was conducted by flow cytometry.
Flow cytometry was used to determine whether Sal-B and its analogs induced apoptosis in cancer cells. After treating PC-3 cancer cells with 0.4 mM Sal-B and EBA, and 0.01 mM compounds B and A for 48 hrs, the cells were collected and allowed to react with PI buffer for 30 min. Flow cytometry was then employed to measure the cell cycle. Approximately 5.16% of PC-3 cancer cells were at sub-G1 phase after treating with Sal-B, roughly 5.27% were at sub-G1 phase after treating with compound B, and roughly 8.54% were at sub-G1 phase after treating with compound A. However, for the control, only around 1.18% of the cells were at sub-G1 phase. Therefore, Sal-B and its analogs (compounds B and A) thus caused a significant increase in the percentage of cells at sub-G1 phase.

[4] = tested on: prostate cancer cells (PC-3); assay: MTT cell viability, prostate cancer cells; conditions: for Viability of PC-3 cells as the concentration is increased: PC-3, MTT, increasing concentration, FIG. 1
Experimental: as §1, §2
MTT testing was employed to observe the viability of cancer cells after treating with Sal-B and the six synthetic analogs.

Row | SMILES | mrna remaining at 200 µM (ETAR mRNA expression) [%] | Cytotoxicity to normal cells [1] | Inhibition of growth of Hone-1 cells [2] | Cytotoxicity / cell death in A10 cells ([3]; A10 cells, 0.2 mM in DMSO) | PC-3 cancer cells at sub-G1 phase (PC-3 cancer cells) | Viability of PC-3 cells as the concentration is increased [4] | Toxicity to PC-3 cells relative to Sal-B ([4]; PC-3 cells, compared with Sal-B) | Precipitation in the treated sample [3]
1 | COC(=O)C(Cc1ccc(OC)c(OC)c1)NC(=O)/C=C/c1cc(OC)c2c(c1)C(C(=O)NC(Cc1ccc(OC)c(OC)c1)C(=O)OC)C(c1ccc(OC)c(OC)c1)O2 (stereo not drawn) [Compound C, 2-(3,4-dimethoxyphenyl)-7-methoxy-5-{(E)-2-[1-(methoxycarbonyl)-2-(3,4-dimethoxyphenyl)-ethylcarbamoyl]-vinyl}-2,3-dihydro-benzofuran-3-carboxylic acid-1-(methoxycarbonyl)-[2-(3,4-dimethoxyphenyl)-ethyl]-amide] | < 20 |  |  |  |  |  |  | 
2 | COC(=O)C(Cc1ccc(OC)c(OC)c1)NC(=O)/C=C/c1ccc(OC)c2c1C(C(=O)NC(Cc1ccc(OC)c(OC)c1)C(=O)OC)C(c1ccc(OC)c(OC)c1)O2 (stereo not drawn) [Compound A, 2-(3,4-dimethoxyphenyl)-7-methoxy-4-{(E)-2-[1-(methoxycarbonyl)-2-(3,4-dimethoxyphenyl)-ethylcarbamoyl]-vinyl}-2,3-dihydro-benzofuran-3-carboxylic acid-1-(methoxycarbonyl)-[2-(3,4-dimethoxyphenyl)-ethyl]-amide] | < 20 | low toxicity to normal cells | significantly inhibit the growth | high level of cell death; also recorded: relatively high cytotoxicity | roughly 8.54% | led to the similar results | ten times more toxic to PC-3 cells than Sal-B | 
3 | COC(=O)C1Cc2cc(OC)c(OC)cc2CN1C(=O)/C=C/c1cc(OC)c2c(c1)C(C(=O)N1Cc3cc(OC)c(OC)cc3CC1C(=O)OC)C(c1ccc(OC)c(OC)c1)O2 (stereo not drawn) [Compound E] |  |  |  |  |  |  |  | significant precipitation
4 | COC(=O)C(Cc1ccccc1)NC(=O)/C=C/c1ccc(OC)c2c1C(C(=O)NC(Cc1ccc(OC)c(OC)c1)C(=O)OC)C(c1ccc(OC)c(OC)c1)O2 (stereo not drawn) [Compound B, 2-(3,4-dimethoxyphenyl)-7-methoxy-4-{(E)-2-[1-(methoxycarbonyl)-2-phenyl-ethylcarbamoyl]-vinyl}-2,3-dihydro-benzofuran-3-carboxylic acid-1(methoxycarbonyl)-[2-(3,4-dimethoxyphenyl)-ethyl]-amide] | ~50 | relatively toxic to normal cells | significantly inhibit the growth |  | roughly 5.27% | led to the similar results |  | significant precipitation
